How the values were obtained:
[1] = system: serum testosterone concentration; experiment: testosterone-reducing potential in intact adult male rats (serum testosterone, radioimmunological); assay type: in vivo; settings: subcutaneous, one time, 0.25 mg/kg of body weight, after 24 hours
Protocol: The peptide compounds are to be used in the treatment of benign enlargements of the prostate and carcinomas of the prostate. Therefore, the testosterone-reducing potential is tested. For this purpose, generally clearly higher dosages of one and the same antagonists are required than for the induction of an inhibition of ovulation. In the test process used here, intact adult male rats are subcutaneously treated one time with the substance to be tested. The effect on the serum testosterone concentration after 24 hours is determined radioimmunologically (kit of the Biermann company).

Mastzell = Mastzell test (release of histamine); assay type: cell-based; settings: ED50 still not achieved at highest stated concentration
release of histamine = experiment: in vivo observation of edematous changes on face/extremities as sign of histamine release; parameters: species or system rats; settings: 0.1 to 5 mg/kg of body weight subcutaneously
Description: In addition to the reduction of the testosterone value, the release of histamine is of importance. […] This in vivo test is ascribed considerably more relevance than the Mastzell test, used in many cases.

## Ac--D--Nal--D--Cpa--D--Pal--Ser--Tyr--D--Cit--Leu--Ahx(Mor)--Pro--D--Ala--NH2 [Example 13]
[1]
  inhibition of serum testosterone concentration in comparison to the control: 26%
Mastzell
  ED50 of the release of histamine: > 10 µg/mL
Release of histamine
  edematous changes on the face and/or on the extremities (typical of histamine release): occur at none of the tested dosages
